{"source": "patent US20040002514A1", "about": "“Topical use of hydroxyeicosatetraenoic acid compounds to treat psoriasis” (Alcon, Inc., priority 2002, published 2004)", "origin": "cited, not measured here", "key": {"[1]": {"system": "IL-6 synthesis by bone marrow stromal cells"}, "[2]": {"system": "leukotriene B4 production or its activity"}, "[3]": {"system": "IL-8 production by human bone marrow stromal cells", "conditions": "1 μM to 0.1 nM"}, "colitis": {"system": "colitis", "conditions": "in vivo"}}, "data": [{"compound": "CCCCC[C@H](O)/C=C/C=C\\C/C=C\\C/C=C\\CCCC(=O)O", "note": "[15-HETE, 15-Hydroxyeicosatetraenoic acid]", "values": [{"measurement": "effect on spontaneous, serum- and cytokine-induced IL-6 synthesis", "setting": "[1]", "value": "no effect"}, {"measurement": "effect on leukotriene B4 production or its activity", "setting": "[2]", "value": "inhibitory effects"}, {"measurement": "effect on spontaneous and serum-induced production of IL-8", "setting": "[3]", "value": "no effect"}, {"measurement": "anti-inflammatory properties in colitis", "setting": "colitis", "value": "minor anti-inflammatory properties"}, {"measurement": "improvement of psoriasis", "setting": "psoriatic skin lesions; injected into psoriatic skin lesions", "value": "can improve psoriasis"}, {"measurement": "amount required to cause a clinical effect", "setting": "psoriatic skin lesions; intralesional injection, 0.1 ml of 10 lmol/L", "value": 300, "unit": "ng"}]}]}
